Results: the OligoGym collection
Oligonucleotides are written 5' to 3', each unit as a sugar letter and its base; * is a phosphorothioate linkage, no mark a phosphodiester; rarer units and linkages stand in square brackets, end groups in braces. Plain capitals give the bases only. d = 2'-deoxy (DNA); r = 2'-OH (RNA)

What follows are substances tested against P2RX3 (assay: reporter assay of Huesken 2005). Conditions: siRNA.
Further: test concentration or dose not given here.

Substance	normalised inhibition (eCFP-eYFP dual reporter)
sense rGrArArGrCrUrGrArGrArArCrUrUrCrArCrUrAdTdT / antisense rUrArGrUrGrArArGrUrUrCrUrCrArGrCrUrUrCdCdA	88.8%
sense rGrArCrCrCrUrUrUrCrUrGrCrCrCrCrArUrCrUdTdT / antisense rArGrArUrGrGrGrGrCrArGrArArArGrGrGrUrCdCdT	65.8%
sense rGrArCrUrUrGrGrArCrArArGrGrCrCrUrGrGrGdTdT / antisense rCrCrCrArGrGrCrCrUrUrGrUrCrCrArArGrUrCdGdC	93%
sense rGrArGrArArArArGrCrArGrCrGrUrGrUrCrCrCdTdT / antisense rGrGrGrArCrArCrGrCrUrGrCrUrUrUrUrCrUrCdAdG	68.3%
sense rGrArGrGrArGrArArArUrArCrCrGrCrUrGrUrGdTdT / antisense rCrArCrArGrCrGrGrUrArUrUrUrCrUrCrCrUrCdAdC	67.4%
sense rGrArGrUrArGrUrUrCrArGrCrUrUrCrUrGrArUdTdT / antisense rArUrCrArGrArArGrCrUrGrArArCrUrArCrUrCdGdG	91.8%
sense rGrArUrUrCrUrGrCrCrCrArGrArGrArGrUrGrAdTdT / antisense rUrCrArCrUrCrUrCrUrGrGrGrCrArGrArArUrCdCdT	96.9%
sense rGrCrArCrCrUrCrGrGrUrCrUrUrUrGrUrCrArUdTdT / antisense rArUrGrArCrArArArGrArCrCrGrArGrGrUrGrCdCdC	85.9%
sense rGrCrGrGrArGrArArGrCrArGrUrCrCrArCrCrGdTdT / antisense rCrGrGrUrGrGrArCrUrGrCrUrUrCrUrCrCrGrCdTdG	81.8%
sense rGrCrGrGrCrCrUrUrUrArCrUrUrCrUrGrUrGrGdTdT / antisense rCrCrArCrArGrArArGrUrArArArGrGrCrCrGrCdCdA	61.4%
sense rGrCrGrGrGrGrCrArGrGrArUrUrUrUrGrCrCrAdTdT / antisense rUrGrGrCrArArArArUrCrCrUrGrCrCrCrCrGrCdAdA	67.8%
sense rGrCrGrGrGrUrArGrGrGrGrArCrGrUrGrGrUrCdTdT / antisense rGrArCrCrArCrGrUrCrCrCrCrUrArCrCrCrGrCdAdA	37.2%
sense rGrCrUrCrCrGrGrArCrUrCrUrArCrGrCrCrArAdTdT / antisense rUrUrGrGrCrGrUrArGrArGrUrCrCrGrGrArGrCdCdC	87.3%
sense rGrGrArArArCrGrCrCrCrArUrCrArUrGrArUrGdTdT / antisense rCrArUrCrArUrGrArUrGrGrGrCrGrUrUrUrCrCdAdC	74.8%
sense rGrGrCrCrGrArCrCrArGrUrArCrArArArGrCrCdTdT / antisense rGrGrCrUrUrUrGrUrArCrUrGrGrUrCrGrGrCrCdCdC	68%
sense rGrGrCrCrGrCrUrGrCrGrUrGrArArCrUrArCrAdTdT / antisense rUrGrUrArGrUrUrCrArCrGrCrArGrCrGrGrCrCdAdG	72.3%
sense rGrGrCrCrUrUrUrArCrUrUrCrUrGrUrGrGrGrAdTdT / antisense rUrCrCrCrArCrArGrArArGrUrArArArGrGrCrCdGdC	80.2%
sense rGrGrGrCrArUrUrArArGrArUrCrGrGrCrUrGrGdTdT / antisense rCrCrArGrCrCrGrArUrCrUrUrArArUrGrCrCrCdAdG	59.7%
sense rGrGrGrUrArGrGrGrGrArCrGrUrGrGrUrCrArAdTdT / antisense rUrUrGrArCrCrArCrGrUrCrCrCrCrUrArCrCrCdGdC	94.9%
sense rGrGrUrArCrGrGrGrArCrArCrArGrCrCrArUrUdTdT / antisense rArArUrGrGrCrUrGrUrGrUrCrCrCrGrUrArCrCdTdG	61.2%
